Assay results from patent US20240199604A1, “SUPRAMOLECULAR POLYMER THERAPEUTICS AND DIAGNOSTICS” (The Regents of the University of California, priority 2022, published 2024).

Target: T1, α-synuclein fibrils isolated from an MSA patient sample (Homo sapiens, UniProt P37840)
T1 construct: fresh-frozen tissue from the cerebellum of patients clinically and neuropathologically diagnosed with MSA; from tissue; host or cells: cerebellum of MSA patients (sarkosyl-insoluble fraction)
Assay: Cryo-EM co-structure with α-synuclein fibrils from MSA patient samples
Assay type: binding
Settings: fibrils from MSA patient sample, cryoelectronic microscopy
Procedure: MSA filament purification. Filament purification was based on Schweigenhauser et al., 2020^2. Briefly, 1-2 g of fresh-frozen tissue from the cerebellum of patients clinically and neuropathologically diagnosed with MSA was homogenized at 20 mL/g of tissue in 10 mM Tris-HCl (pH 7.4), 800 mM NaCl, 1 mM EGTA, and 10% sucrose. A final concentration of 1% N-laurosarcosinate (w/v) was added to the homogenates, and these mixtures were incubated at 37° C. for 30 minutes. Homogenates were then centrifuged at 10,000 g for 10 minutes, and the supernatant was kept and then centrifuged at 100,000 g for 20 minutes. The pellets were resuspended at 500 μL/g of frozen tissue in 10 mM Tris-HCl (pH 7.4), 800 mM NaCl, 1 mM EGTA, and 10% sucrose. This was followed by another centrifugation at 3,000 g for 5 minutes. The supernatant was kept and diluted threefold with 50 mM Tris-HCl (pH 7.4), 150 mM NaCl, 10% sucrose, and 2% sarkosyl, followed by another centrifugation at 150,000 g for 1 hour. The final pellet resuspended in 30 mM Tris-HCl (pH 7.4) at a concentration of […] frozen tissue.
Cryo-EM sample preparation and data collection. Purified frontal cortex and cerebellum tissue was incubated with 20 μM ligand for 45 minutes prior to freezing. For the tau PHF, 3 μL of purified filaments mixed with GTP-1 was added to a glow-discharged 200 mesh 1.2/1.3R Au Quantifoil grid for 10 seconds before blotting for 2 seconds, and then a second 3 μL aliquot was added for 3 seconds and blotted for 1 second before being plunge frozen in liquid ethane using a FEI Vitrobot Mark IV (Thermo Fisher Scientific). For the synuclein ligands, 3 μL of purified filaments mixed with compound was added to a 200 mesh 1.2/1.3R Au Quantifoil grid coated with a 2 nm thick layer of carbon, which had not been glow discharged. After 30 seconds, grids were blotted for 7.5 seconds at room temperature and 100% humidity. Grids were plunge frozen in liquid ethane using a FEI Vitrobot Mark IV. […] A defocus range of 0.8 to 1.8 μm was used with a total exposure time of 2.024 seconds fractionated into 0.025 seconds subframes. The total dose for each movie was 46 electrons/Å^2. Movies were motion-corrected using MotionCor2^3 in Scipion^4 and were Fourier cropped by a factor of 2 to a final pixel size of 0.834 Å per pixel.
Image processing. All image processing was done in RELION 4^5, and the same workflow was used for each dataset. Dose-weighted summed micrographs were imported into RELION 4. The contrast transfer function was estimated using CTFFIND-4.1^6. Filaments were manually picked and then segments were extracted with a box size of 900 pixels downscaled to 300 pixels. Contaminants and segments contributing to straight filaments were separated out using reference-free 2D class averaging. The remaining segments were re-extracted with a box size of 288 pixels without downscaling. An initial model was generated from a cylinder in RELION. One or more rounds of 3D classification with image alignment were performed, with helical rise and […] parameters fixed to eliminate obvious junk particles. One or more rounds of 3D auto-refinement was run using the best map from 3D classification low-pass filtered to 10 Å, allowing rise and twist parameters to vary. Maps were sharpened using the standard post-processing procedures in RELION.
Model building, refinement, and analysis. Prior to ligand placement, a single strand of a previously solved MSA or tau PHF filament stutr^2 (PDB: 6XYQ) was refined against the density using Phenix^7. Refinement of the ligand binding pocket was done in COOT^8. Ligands were placed by hand in the density using Chimera^9. This model was then translated to give a stack spanning 5 rungs.

Row | Compound | co-structure of supramolecular polymeric inhibitor with α-synuclein fibrils
1 | Cc1nccc2cc(-c3nc(-n4ccc5cccnc5c4=O)c(-c4ccc(C(F)(F)F)cc4)o3)ccc12 [compound 427] | bound to fibrils isolated from an MSA patient sample

Target: T2, YFP-tagged 0N4R-Tau P301S aggregates seeded with 416-AD11A lysate (Homo sapiens, UniProt P10636, P618S)
T2 construct: C-terminally YFP-tagged full length 0N4R-Tau; expressed in transfected cells
Assay: Tau-AD high throughput screening (counter screen) in T24 cells
Assay type: cell-based
Settings: T24 cells seeded with 416-AD11A lysate
Procedure: A fragment of the Middle Tempral Gyrus (MTG) from Alzheimer's Disease (AD) patient 2217 was resuspended in 9 volumes of PBS (ml/g of brain) and homogenized 3×12 seconds using a probe homogenizer (Thomas Scientific) with disposable Omni Tip plastic homogenizing probes (Thomas Scinetific Cat No 3409Y77) to generate a 10% brain homogenate (10% AD11-BH). The 10% AD11-BH was clarified of insoluble debris by centrifugation at 800×g for 5 minutes. The resulting supernatant was collected and the protein concentration of this clarified BH (AD11-CBH) was determined by bicinchoninic acid assay (BCA) (Thermo Fisher Cat No. 23227). HEK293 cells stably expressing a C-terminally Clover-tagged truncated 4R-Tau^243-382 transgene containing the P301L and V337M mutations and a C-terminally Ruby-tagged truncated 3R-Tau^243-382 transgene containing the L266V and V337M mutations (128/139 cells) were transfected with the AD11-CBH using lipofectamine 2000 (LF2K) (Thermo Fisher Cat No. 11668500). Briefly, 0.32 μl of LF2K were diluted in 5 μl Opti-MEM (Thermo Scientific Cat No 31985070) per well of a 384-well plate and incubated for 5 min at room temperature (RT). This mixture was added to 0.32 μg of AD11-CBH diluted in 5 μl of PBS per well of a 384-well plate and vortex briefly. The transfection mixture was incubated at room temperature for 90 min. The transfection complexes were subsequently added to a single well of a 384-well plate containing 3500 128/139 cells. After 3 days the cells were harvested, counted and plated at a density of 1 cell/well in a 96-well plate. A clonal cell line containing Clover and Ruby positive Tau aggregates was selected and termed 416-AD11A cells. Following the expansion of these 416-AD11A cells, a cell lysate was prepared by freeze/thaw. The cells from a confluent T175 flask were harvested in 1 ml of PBS containing 1× protease inhibitor cocktail by scraping. The cell suspension was subjected to 4 cycles of freezing in liquid nitrogen for 5 minutes followed by thawing at 37° C. for 5 minutes. The resulting cell lysate was centrifuged at 2000 RPM for 10 minutes to remove the cell debris and the protein concentration of the resulting 416-AD11A lysate was determined by BCA assay and aliquots frozen for future use.
HEK293 cells stably expressing C-terminally YFP-tagged full length 0N4R-Tau carrying a P301S mutation (T24 cells) are plated at a density of 4000 cells per well of a 384-well black walled, clear bottom plate (Greiner Cat No 5678-1091Q) in 60 μl of complete DMEM (DMEM (Corning Cat No 10-013-CV), 10% FBS (VWR Cat No 97068-085, 0.5% Penicilin/streptomycin (Gibco Cat No 15140-122)) containing 0.1 μg/ml Hoechst Dye (Thermo Scientific Cat No H3570). Transfection complexes are prepared by diluting 0.15 μg of 416-AD11A lysate or HEK lysate in 5 μl of PBS per well to be transfected and 0.15 μl of Lipofectamine 2000 (LF2K) (ThermoFisher Cat No 11668500) in 5 μl of Opti-MEM per well to be transfected in separate tubes. The pre-diluted 416-AD11A or HEK lysates and LF2K are subsequently mixed and allowed to incubate for 90 minutes at RT. A 10 μl aliquot of the 416-AD11A or HEK transfection complexes is added to the appropriate wells of the 384-well plate containing the T24 cells using the Bravo liquid handling platform (Agilent). Wells A23-P24 of the 384-well plate are transfected with HEK lysate to act as a reference point for spontaneous aggregation of 0N4R^P301S and for transfection related toxicity. The dilution of test compounds is performed using the Bravo liquid handling platform (Agilent). The control is DMSO in the absence of any test compound. Briefly, 1 μl of each test compound (5 mM stock) in the 384-well test plate was transferred to a 384-well plate (Greiner Cat No 781280) containing 61.5 μl of complete DMEM to generate a working stock of compounds at 80 μM. […]

T2 sequence (P10636 1-383 isoform P10636-6 P243S): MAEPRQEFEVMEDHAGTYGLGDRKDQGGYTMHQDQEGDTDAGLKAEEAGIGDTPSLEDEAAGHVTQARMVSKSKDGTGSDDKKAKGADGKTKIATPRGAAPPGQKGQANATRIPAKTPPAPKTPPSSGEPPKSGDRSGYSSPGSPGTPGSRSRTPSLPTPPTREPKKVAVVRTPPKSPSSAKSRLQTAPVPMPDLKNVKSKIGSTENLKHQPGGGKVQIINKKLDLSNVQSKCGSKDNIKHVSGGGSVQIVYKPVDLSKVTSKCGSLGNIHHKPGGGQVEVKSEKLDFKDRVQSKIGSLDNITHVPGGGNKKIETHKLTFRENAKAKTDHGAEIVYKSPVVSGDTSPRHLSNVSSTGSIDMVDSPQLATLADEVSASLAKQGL

Row | AD Tau Aggregates (% control) | Compound
2 | 100 % control | CNC(=O)c1ncc2c(-c3cccc4c3OC(F)(F)O4)nn(Cc3ccccc3)c2n1 [Compound 254]
3 | 96 % control | CNC(=O)c1ncc2c(-c3cc4c(cnn4C)cc3F)nn(Cc3ccccc3)c2n1 [Compound 253]
4 | 87 % control | CNC(=O)c1ncc2c(-c3ccc(F)cc3)nn(Cc3ccc(F)cc3)c2n1 [Compound 261]
5 | 95 % control | CNC(=O)c1ncc2c(-c3ccc(F)cc3)nn(Cc3cccc(F)c3)c2n1 [Compound 260]
6 | 110 % control | CNC(=O)c1ncc2c(-c3ccc(F)cc3)nn(CC3CCCCC3)c2n1 [Compound 258]
7 | 98 % control | CC(=O)Nc1ncc2c(-c3ccccc3C)nn(Cc3ccccc3)c2n1 [Compound 266]
8 | 100 % control | CCC(=O)Nc1ncc2c(-c3ccccc3)nn(Cc3ccc(OC)cc3)c2n1 [Compound 269]
9 | 99 % control | O=c1nc2c(ccn2C(F)(F)F)cn1-c1nc(N2Cc3ccccc3C2)oc1-c1ccc(F)cc1 [Compound 242]
10 | 120 % control | CNC(=O)c1ncc2c(-c3ccccc3)nn(-c3ccc(F)cc3)c2n1 [Compound 246]
11 | 90 % control | CC(=O)Nc1ncc2c(-c3ccccc3)nn(CC3CCCCC3)c2n1 [Compound 280]
12 | 100 % control | CNC(=O)c1ncc2c(-c3ccccc3Cl)nn(-c3ccc(F)cc3)c2n1 [Compound 244]
13 | 120 % control | CCc1ccccc1-c1nn(-c2ccc(F)cc2)c2nc(C(=O)NC)ncc12 [Compound 245]
14 | 110 % control | CC(=O)Nc1ncc2c(-c3ccccc3)nn(C(C)c3ccccc3)c2n1 (stereo not shown) [Compound 265]
15 | 94 % control | COC(=O)Nc1ncc2c(-c3ccccc3)nn(-c3ccccc3)c2n1 [Compound 274]
16 | 95 % control | Cc1ccnn1-c1nc(-n2cc3ccn(C(F)(F)F)c3nc2=O)c(-c2ccc(F)cc2)o1 [Compound 240]
17 | 91 % control | CC(=O)Nc1ncc2c(-c3ccccc3)nn(Cc3cncc(F)c3)c2n1 [Compound 267]
18 | 85 % control | Cc1cc(-c2nc(-n3cc4ccn(C5CC5)c4nc3=O)c(-c3ccc(F)c(F)c3)o2)ncc1F [Compound 234]
19 | 95 % control | CNC(=O)c1ncc2c(-c3ccccc3)nn(Cc3ccccc3)c2n1 [Compound 248]
20 | 98 % control | Cc1ccn(-c2nc(-n3cc4ccn(C(F)(F)F)c4nc3=O)c(-c3ccc(F)cc3)o2)n1 [Compound 241]
21 | 99 % control | CNC(=O)c1ncc2c(-c3ccc(F)cc3)nn(Cc3ccnc(F)c3)c2n1 [Compound 259]
22 | 92 % control | CC(=O)Nc1ncc2c(-c3ccccc3)nn(Cc3ccncc3)c2n1 [Compound 279]

System: not listed separately
Assay: Parallel Artificial Membrane Permeability Assay (PAMPA)
Assay type: in vitro ADME
Settings: 200 uM test compound, 4 hr
Procedure: Parallel Artificial Membrane Permeability Assay (PAMPA). 5 uL of 1% lecithin (VWR 0579) dissolved in n-dodecane (Sigma Aldrich D221104) was applied to each well of a MultiScreen IP PAMPA filter plate (Millipore MAIPSWU10) and allowed to equilibrate for 5 minutes. 300 uL of PBS was added to the acceptor plate and 150 uL of 200 uM test compound dissolved in PBS and 30% ethanol was added to the donor wells before incubating the donor plate in the acceptor plate for 4 hr at 500 rpm. 100 uL was sampled from the donor and acceptor wells and the concentrations were measured by liquid chromatography-mass spectrometry (SCIEX 4500) or UV-VIS plate reader (BMG).

Row | PAMPA: P_app pH 7.4 | Compound
23 | >50 ×10e−6 cm/sec | CNC(=O)c1ncc2c(-c3cc(F)cc(F)c3)nn(Cc3ccccc3)c2n1 [Compound 252]
24 | >50 ×10e−6 cm/sec | CC(=O)Nc1ncc2c(-c3ccccc3)nn(Cc3ccccn3)c2n1 [Compound 278]
25 | >50 ×10e−6 cm/sec | CC(=O)Nc1ncc2c(-c3ccccc3C)nn(Cc3ccccc3)c2n1 [Compound 266]
26 | >50 ×10e−6 cm/sec | CNC(=O)c1ncc2c(-c3ccccc3)nn(-c3ccc(F)cc3)c2n1 [Compound 246]
27 | >50 ×10e−6 cm/sec | CCn1nc(-c2ccccc2)c2cnc(NC(C)=O)nc21 [Compound 277]
28 | >50 ×10e−6 cm/sec | CNC(=O)c1ncc2c(-c3ccc(F)cc3)nn(Cc3ccccc3)c2n1 [Compound 250]
29 | 19.5 ×10e−6 cm/sec | CC(=O)Nc1ncc2c(-c3ccccc3)nn(CC3CCCCC3)c2n1 [Compound 280]
30 | >50 ×10e−6 cm/sec | CCc1ccccc1-c1nn(-c2ccc(F)cc2)c2nc(C(=O)NC)ncc12 [Compound 245]
31 | >50.0 ×10e−6 cm/sec | CNc1nc(=O)n(-c2nc(-c3cccc(Cl)c3)oc2-c2ccc(Cl)c(F)c2)cc1F [Compound 1]
